The values below come from ChEMBL document CHEMBL3044740, “Syntheses and evaluation of 2,5-disubstituted 4-thiazolidinone analogues as antimicrobial agents” (2012).

Assay type in all cases: functional
Assay [1] has as its system Candida albicans. As to the kind of experiment: Antifungal activity against Candida albicans MTCC 227 at 300 ug/ml by cup-plate method.
Assay [2] concerns Candida albicans. Put plainly: Antifungal activity against Candida albicans MTCC 227 at 200 ug/ml by cup-plate method.
Assay [3] relates to Escherichia coli. As to the kind of experiment: Antibacterial activity against Escherichia coli MTCC 739 at 300 ug/ml by cup-plate method. The conditions noted are these: for zone of inhibition at 300 µg/mL: read-out: DIZ.
Assay [4] has as its system Candida albicans. As to the kind of experiment: Antifungal activity against Candida albicans MTCC 227 at 100 ug/ml by cup-plate method.
The test system of assay [5] is Escherichia coli. As to the kind of experiment: Antibacterial activity against Escherichia coli MTCC 739 at 200 ug/ml by cup-plate method. The conditions noted are these: for zone of inhibition at 200 µg/mL: read-out: DIZ.
Assay [6] relates to Escherichia coli. As to the kind of experiment: Antibacterial activity against Escherichia coli MTCC 739 at 100 ug/ml by cup-plate method. The note with it: for zone of inhibition at 100 µg/mL: read-out: DIZ.
Assay [7] has as its system Pseudomonas aeruginosa. Put plainly: Antibacterial activity against Pseudomonas aeruginosa MTCC 2453 at 300 ug/ml by cup-plate method. The conditions noted are these: for zone of inhibition at 300 µg/mL: read-out: DIZ.
The subject of assay [8] is Pseudomonas aeruginosa. Put plainly: Antibacterial activity against Pseudomonas aeruginosa MTCC 2453 at 200 ug/ml by cup-plate method. The conditions noted are these: for zone of inhibition at 200 µg/mL: read-out: DIZ.
The subject of assay [9] is Pseudomonas aeruginosa. As to the kind of experiment: Antibacterial activity against Pseudomonas aeruginosa MTCC 2453 at 100 ug/ml by cup-plate method. The conditions noted are these: for zone of inhibition at 100 µg/mL: read-out: DIZ.
For assay [10], the system named is Bacillus subtilis. As to the kind of experiment: Antibacterial activity against Bacillus subtilis MTCC 121 at 300 ug/ml by cup plate method. The note with it: read-out: DIZ.
Assay [11] deals with Bacillus subtilis. As to the kind of experiment: Antibacterial activity against Bacillus subtilis MTCC 121 at 200 ug/ml by cup plate method. The conditions noted are these: read-out: DIZ.
Assay [12] concerns Bacillus subtilis. Put plainly: Antibacterial activity against Bacillus subtilis MTCC 121 at 100 ug/ml by cup plate method. The note with it: read-out: DIZ.
For assay [13], the system named is Staphylococcus aureus. Put plainly: Antibacterial activity against Staphylococcus aureus MTCC 96 at 300 ug/ml by cup-plate method. The conditions noted are these: read-out: DIZ.
Assay [14] has as its system Staphylococcus aureus. Put plainly: Antibacterial activity against Staphylococcus aureus MTCC 96 at 200 ug/ml by cup-plate method. The note with it: read-out: DIZ.
Assay [15] concerns Staphylococcus aureus. Put plainly: Antibacterial activity against Staphylococcus aureus MTCC 96 at 100 ug/ml by cup-plate method. The conditions noted are these: read-out: DIZ.
The subject of assay [16] is Candida albicans. As to the kind of experiment: Antifungal activity against Candida albicans MTCC 227 at 50 ug/ml by cup-plate method.
The test system of assay [17] is Pseudomonas aeruginosa. As to the kind of experiment: Antibacterial activity against Pseudomonas aeruginosa MTCC 2453 at 50 ug/ml by cup-plate method. The note with it: for zone of inhibition at 50 µg/mL: read-out: DIZ.
Assay [18] relates to Escherichia coli. As to the kind of experiment: Antibacterial activity against Escherichia coli MTCC 739 at 50 ug/ml by cup-plate method. The note with it: for zone of inhibition at 50 µg/mL: read-out: DIZ.
Assay [19] concerns Bacillus subtilis. As to the kind of experiment: Antibacterial activity against Bacillus subtilis MTCC 121 at 50 ug/ml by cup plate method. The conditions noted are these: read-out: DIZ.
Assay [20] relates to Staphylococcus aureus. Put plainly: Antibacterial activity against Staphylococcus aureus MTCC 96 at 50 ug/ml by cup-plate method. The note with it: read-out: DIZ.

Each structure is given as a SMILES string. Activity calls are given as the source filed them. No cut-off for these calls is given here.

As to `O=C1N/C(=N\c2ccc([N+](=O)[O-])cc2)S/C1=C\c1ccccc1`, the “diameter of the inhibition zone (DIZ)” value in the assay with Candida albicans [1], in the assay with Candida albicans [2], with Candida albicans [4] and in the assay with Candida albicans [16] was “inactive” in each case. The zone of inhibition at 300 µg/mL with Escherichia coli [3] was found to be 15 mm; with Pseudomonas aeruginosa [7], 13 mm; in the assay with Bacillus subtilis [10], 15 mm; in the assay on Staphylococcus aureus [13], 16 mm. The zone of inhibition at 200 µg/mL in the assay with Escherichia coli [5] was 13 mm; in the assay on Pseudomonas aeruginosa [8], 11 mm; with Bacillus subtilis [11], 13 mm; in the assay on Staphylococcus aureus [14], 14 mm. Further, the zone of inhibition at 100 µg/mL in the assay on Escherichia coli [6] turned out to be 12 mm; in the assay with Pseudomonas aeruginosa [9], 10 mm; with Bacillus subtilis [12] it was 12 mm; with Staphylococcus aureus [15] it was 13 mm. Moreover, the zone of inhibition at 50 µg/mL in the assay with Pseudomonas aeruginosa [17] was 10 mm; in the assay with Escherichia coli [18], 11 mm; in the assay on Bacillus subtilis [19], 11 mm; with Staphylococcus aureus [20], 12 mm.
For the compound `COc1cc(/C=C2\S/C(=N/c3ccccc3[N+](=O)[O-])NC2=O)ccc1O`, the “diameter of the inhibition zone (DIZ)” value in the assay with Candida albicans [1], in the assay with Candida albicans [2], in the assay with Escherichia coli [3], with Candida albicans [4], in the assay with Escherichia coli [5] and in the assay with Escherichia coli [6] was “inactive” throughout. The “diameter of the inhibition zone (DIZ)” value in the assay with Pseudomonas aeruginosa [7], in the assay with Pseudomonas aeruginosa [8], with Pseudomonas aeruginosa [9], in the assay with Candida albicans [16], in the assay on Pseudomonas aeruginosa [17] and in the assay on Escherichia coli [18] was “inactive” each time. Moreover, the zone of inhibition at 300 µg/mL with Bacillus subtilis [10] was found to be 12 mm; with Staphylococcus aureus [13] it was 8 mm. The zone of inhibition at 200 µg/mL in the assay on Bacillus subtilis [11] stood at 10 mm; in the assay with Staphylococcus aureus [14] it was 8 mm. Further, the zone of inhibition at 100 µg/mL in the assay on Bacillus subtilis [12] and in the assay with Staphylococcus aureus [15] was 8 mm throughout. For the same compound, the zone of inhibition at 50 µg/mL is 8 mm with Bacillus subtilis [19] and 7 mm in the assay on Staphylococcus aureus [20].
As to `O=C1N/C(=N\c2ccccc2[N+](=O)[O-])S/C1=C\c1cccc([N+](=O)[O-])c1`, the zone of inhibition at 300 µg/mL in the assay on Candida albicans [1] (read-out: DIZ) is 16 mm; in the assay on Escherichia coli [3], 15 mm; in the assay with Pseudomonas aeruginosa [7] it was 16 mm; with Bacillus subtilis [10] it was 22 mm; in the assay on Staphylococcus aureus [13], 16 mm. Moreover, the zone of inhibition at 200 µg/mL with Candida albicans [2] (read-out: DIZ) was determined as 14 mm; with Escherichia coli [5], 13 mm; with Pseudomonas aeruginosa [8] it was 15 mm; with Bacillus subtilis [11] it was 20 mm; in the assay on Staphylococcus aureus [14], 14 mm. Besides, the zone of inhibition at 100 µg/mL in the assay with Candida albicans [4] (read-out: DIZ) was found to be 12 mm; in the assay with Escherichia coli [6] it was 8 mm; in the assay with Pseudomonas aeruginosa [9], 11 mm; with Bacillus subtilis [12], 15 mm; with Staphylococcus aureus [15], 10 mm. Further, the zone of inhibition at 50 µg/mL came to 10 mm in the assay on Candida albicans [16] (read-out: DIZ); 10 mm with Pseudomonas aeruginosa [17]; 10 mm in the assay on Escherichia coli [18]; 7 mm with Bacillus subtilis [19]; 8 mm with Staphylococcus aureus [20].
As for `O=C1N/C(=N\c2ccc([N+](=O)[O-])cc2)S/C1=C\c1ccc(Cl)cc1`, the “diameter of the inhibition zone (DIZ)” value in the assay with Candida albicans [1], in the assay with Candida albicans [2], with Candida albicans [4] and with Candida albicans [16] was “inactive” in each case. The zone of inhibition at 300 µg/mL with Escherichia coli [3] was determined as 18 mm; in the assay with Pseudomonas aeruginosa [7], 14 mm; with Bacillus subtilis [10], 18 mm; in the assay with Staphylococcus aureus [13], 17 mm. Moreover, the zone of inhibition at 200 µg/mL in the assay on Escherichia coli [5] stood at 16 mm; in the assay on Pseudomonas aeruginosa [8], 13 mm; in the assay with Bacillus subtilis [11], 17 mm; with Staphylococcus aureus [14], 15 mm. Moreover, the zone of inhibition at 100 µg/mL was determined as 16 mm in the assay on Escherichia coli [6], 12 mm in the assay with Pseudomonas aeruginosa [9], 16 mm in the assay with Bacillus subtilis [12] and 14 mm in the assay on Staphylococcus aureus [15]. The zone of inhibition at 50 µg/mL in the assay with Pseudomonas aeruginosa [17] is 11 mm; in the assay on Escherichia coli [18], 15 mm; with Bacillus subtilis [19], 15 mm; with Staphylococcus aureus [20], 13 mm.
Turning to `O=C1N/C(=N\c2ccccc2[N+](=O)[O-])S/C1=C\c1ccc(Cl)cc1`, the “diameter of the inhibition zone (DIZ)” value in the assay on Candida albicans [1], in the assay with Candida albicans [2], with Candida albicans [4] and with Candida albicans [16] was “inactive” throughout. For the same compound, the zone of inhibition at 300 µg/mL in the assay on Escherichia coli [3] was found to be 11 mm; in the assay on Pseudomonas aeruginosa [7], 18 mm; in the assay with Bacillus subtilis [10], 16 mm; with Staphylococcus aureus [13], 18 mm. The zone of inhibition at 200 µg/mL in the assay on Escherichia coli [5] was 11 mm; in the assay on Pseudomonas aeruginosa [8], 17 mm; with Bacillus subtilis [11], 15 mm; in the assay on Staphylococcus aureus [14], 16 mm. Further, the zone of inhibition at 100 µg/mL in the assay on Escherichia coli [6] turned out to be 11 mm; in the assay with Pseudomonas aeruginosa [9] it was 15 mm; in the assay with Bacillus subtilis [12] it was 14 mm; in the assay with Staphylococcus aureus [15] it was 15 mm. Moreover, the zone of inhibition at 50 µg/mL came to 14 mm in the assay with Pseudomonas aeruginosa [17], 10 mm in the assay on Escherichia coli [18], 13 mm in the assay on Bacillus subtilis [19] and 14 mm in the assay on Staphylococcus aureus [20].
Consider `O=C1N/C(=N\c2ccccc2[N+](=O)[O-])S/C1=C\c1ccc(O)cc1`, for which the “diameter of the inhibition zone (DIZ)” value with Candida albicans [1], in the assay with Candida albicans [2], in the assay with Escherichia coli [3], in the assay on Candida albicans [4], in the assay with Escherichia coli [5] and with Escherichia coli [6] was “inactive” each time. The “diameter of the inhibition zone (DIZ)” value in the assay on Pseudomonas aeruginosa [7], in the assay with Pseudomonas aeruginosa [8], with Pseudomonas aeruginosa [9], with Candida albicans [16], with Pseudomonas aeruginosa [17] and in the assay with Escherichia coli [18] was “inactive” each time. Moreover, the zone of inhibition at 300 µg/mL with Bacillus subtilis [10] and in the assay with Staphylococcus aureus [13] was 11 mm in each case. In addition, the zone of inhibition at 200 µg/mL in the assay on Bacillus subtilis [11] and with Staphylococcus aureus [14] was 10 mm in each case. Moreover, the zone of inhibition at 100 µg/mL with Bacillus subtilis [12] and with Staphylococcus aureus [15] was 10 mm each time. Moreover, the zone of inhibition at 50 µg/mL in the assay with Bacillus subtilis [19] and in the assay with Staphylococcus aureus [20] was 10 mm in each case.
